Data as given in PubChem BioAssay (NCI).
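96-well plates; 48 h exposure; 5 concentrations. Endpoints by linear interpolation between flanking doses. Not reached: highest tested concentration assigned. Definition used: TGI = concentration required for complete inhibition of growth.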

Tests used:
Assay in all cases: NCI tumour cell line growth inhibition, 48 h
UACC-257 melanoma = system: UACC-257 melanoma
SW-620 colon = system: SW-620 colon
HOP-62 NSCLC = system: HOP-62 NSCLC
LOX IMVI melanoma = system: LOX IMVI melanoma
A549 NSCLC = system: A549 NSCLC
SF-295 CNS = system: SF-295 CNS
NCI-H460 lung = system: NCI-H460 lung
MDA-MB-231 breast = system: MDA-MB-231 breast
DU-145 prostate = system: DU-145 prostate
HS 578T breast = system: HS 578T breast
SK-MEL-2 melanoma = system: SK-MEL-2 melanoma
HCC-2998 colon = system: HCC-2998 colon
SNB-75 CNS = system: SNB-75 CNS
SNB-19 CNS = system: SNB-19 CNS
HCT-15 colon = system: HCT-15 colon
SN12C renal = system: SN12C renal
CCRF-CEM leukemia = system: CCRF-CEM leukemia
MOLT-4 leukemia = system: MOLT-4 leukemia
OVCAR-4 ovarian = system: OVCAR-4 ovarian
MALME-3M melanoma = system: MALME-3M melanoma
EKVX NSCLC = system: EKVX NSCLC
PC-3 prostate = system: PC-3 prostate
HT29 colon = system: HT29 colon
786-0 renal = system: 786-0 renal
IGROV1 ovarian = system: IGROV1 ovarian
OVCAR-3 ovarian = system: OVCAR-3 ovarian
UO-31 renal = system: UO-31 renal
MDA-MB-435 = system: MDA-MB-435
MDA-N = system: MDA-N
ACHN renal = system: ACHN renal
MCF7 breast = system: MCF7 breast
T-47D breast = system: T-47D breast
K-562 leukemia = system: K-562 leukemia
UACC-62 melanoma = system: UACC-62 melanoma
U251 CNS = system: U251 CNS
CAKI-1 renal = system: CAKI-1 renal
OVCAR-5 ovarian = system: OVCAR-5 ovarian
NCI-H23 lung = system: NCI-H23 lung
NCI/ADR-RES ovarian = system: NCI/ADR-RES ovarian
HCT-116 colon = system: HCT-116 colon
SK-OV-3 ovarian = system: SK-OV-3 ovarian
KM12 colon = system: KM12 colon
SK-MEL-28 melanoma = system: SK-MEL-28 melanoma
RXF 393 renal = system: RXF 393 renal
M14 melanoma = system: M14 melanoma
TK-10 renal = system: TK-10 renal
RPMI-8226 leukemia = system: RPMI-8226 leukemia
NCI-H522 lung = system: NCI-H522 lung
BT-549 breast = system: BT-549 breast
OVCAR-8 ovarian = system: OVCAR-8 ovarian
SF-268 CNS = system: SF-268 CNS
SK-MEL-5 melanoma = system: SK-MEL-5 melanoma
SF-539 CNS = system: SF-539 CNS
HOP-92 NSCLC = system: HOP-92 NSCLC
COLO 205 colon = system: COLO 205 colon
HL-60(TB) leukemia = system: HL-60(TB) leukemia
A498 renal = system: A498 renal
NCI-H226 lung = system: NCI-H226 lung

Measured: TGI

O=c1ccc2c(Cl)sc(Cl)c2[nH]1
not listed: SK-MEL-5 melanoma | SF-539 CNS | HOP-92 NSCLC | COLO 205 colon | HL-60(TB) leukemia | A498 renal | NCI-H226 lung
> 100 µM: all other assays above

CCOC(=O)C(/C=N/C(N)=S)=C(/O)c1ccccc1
not listed: HS 578T breast | CCRF-CEM leukemia | MALME-3M melanoma | PC-3 prostate | K-562 leukemia | RPMI-8226 leukemia | NCI-H522 lung
> 100 µM: all other assays above
